# Measurements reported in patent US20170137481A1, “Use of Cell-Permeable Peptide Inhibitors of the JNK Signal Transduction Pathway for the Treatment of Various Diseases” (Xigen Inflammation Ltd., priority 2014, published 2017).
# Marks after values point to notes of the source that are not given here.
# What was measured:
# [1] = system: Endotoxin-Induced Uveitis in Lewis rats; test: Endotoxin-Induced Uveitis (EIU), action duration after subconjunctival administration; format: in vivo, rat
# Excerpt: The aim of this study was to evaluate the duration of action of SDD-1002 following sub-conjunctival administration in a rat model of EIU.
# 90 male Lewis rats were used, age approximately 6-8 weeks (at the induction), 4 weeks (at the injection for the Day-28), 5 weeks (at the injection for the Day-21), 6 weeks (at the injection for the Day-14, Day-7 and for the Day 0), 7 weeks (at the injection for Day-2 and Day-1), and housed by five in standard cages. Animals were allocated to the following groups: Group No. Treatment Dose Time-point
# Thus, each animal received a single subconjunctival injection of either XG-102 (20 μg/eye), saline (0.9% NaCl) vehicle control or Solumedrol® (20 μg/eye) into each eye. Methylprednisolone (Solumedrol®) is most commonly used in uveitis as sub-conjunctival treatment.
# On Day 0, ocular inflammation was induced by a single footpad injection of liposaccharide (LPS, 1 mg/kg, 0.5 mL/kg Sigma # L6511) on anesthetized animals. LPS powder was reconstituted the day of induction. XG-102 was administered by a single injection (20 microgram/5 microL) in each eye on Day-28 or Day-21 or Day-14 or Day-7 or Day-2 or Day-1 or Day 0 (immediately before induction). Saline control and reference item (Solumedrol®; 20 μg/eye) were administered by a single injection in each eye on Day 0 (immediately before induction).
# Animals were examined with a slit-lamp before XG-102 administration (baseline) before induction (Day 0) then 24 h after induction (Day 1). The inflammation was graded using a scoring system as described by Devos A., Van Haren M., Verhagen C., Hoek Zema R., Kijlstra A: Systemic anti-tumor necrosis factor antibody treatment exacerbates Endotoxin Induced Uveitis in the rat. Exp. Eye. Res. 1995; 61: 667-675. Briefly, flare, miosis and hypopion were scored for absence (0), or presence (1), iris hyperemia and cells in the anterior chamber were scored for absence (0), or mild (1) or severe presence (2). The maximum score (sum of the five parameter scores) was 7.
# At the end of the evaluation (24 h after induction), animals were euthanized by intravenous injection of overdosed pentobarbital. The aqueous humor was collected immediately for each eye. For quantification of Cellular Infiltration in Aqueous Humor (AH), the sample was diluted 10-fold with PBS before detection. The number of infiltrated cells was manually counted after Giemsa staining under microscope.
# [2] = system: patients who underwent complex ocular surgery; test: Phase II post-surgery intraocular inflammation, safety
# Excerpt: The criteria for evaluation of safety were:
# An AE is therefore any unfavorable and unintended sign, symptom or disease temporally associated with the use of a medicinal product, whether or not considered related to the medicinal product.
# The present study was a double-blind study. All patients who were randomized and for whom the sub-conjunctival injection was started are included in the safety analysis by dose group. […] If the study treatment eye drops were stopped prematurely (i.e. before day 21), the patients concerned continued follow-up until day 28, in accordance with the study protocol.
# Investigators assessed (in a blinded manner) the relationship of each reported AE to any of the study treatments. An event was considered to be related to study treatment if the Investigator ticked either ‘possible’ or ‘probable’ as the reply to this question.
# [3] = system: post-surgery intraocular inflammation; test: Phase II post-surgery intraocular inflammation, efficacy; format: in vivo, human; conditions: for Cleared ocular inflammation (cell grade 0 and flare grade 0): Yes: Dexamethasone
# Experimental: The objectives of the present study were to evaluate the efficacy and safety of a single sub-conjunctival injection of XG-102 90 or 900 μg administered within maximally 3 hours after the end of the surgical procedure compared to dexamethasone eye drops administered 4 times/day for 21 days in post-operative intraocular inflammation.
# In accordance with this trial's primary objective, the primary outcome was evaluated by the mean anterior chamber cells grade at day 28 post-administration of the sub-conjunctival injection of study treatment comparing XG-102 900 μg with dexamethasone eye drops.
# The present trial was a randomized (1:1:1), controlled, double-blind, multicenter non-inferiority clinical trial with three parallel groups of equal size. Randomization, which was blocked by center, was performed using a web-based, secure, randomization system. Eligible patients were male or female (post-menopausal, or sterile by tubal ligation or hysterectomy), who were >18 years of age and who had undergone one of the following ocular surgeries: (a) anterior and posterior segment combined surgery which may include surgery for: cataract and retinal detachment, cataract and epimacular membrane and/or cataract and macular hole or (b) glaucoma surgery or (c) complex posterior segment surgery or (d) complicated intraocular surgery which may include cataract surgery associated with diabetic retinopathy and/or complicated retinal detachment ocular surgery. Patients were not eligible to participate if any of the following exclusion criteria was present at the moment of randomization:
# The study protocol planned that 138 patients would be randomized and administered the sub-conjunctival injection of study treatment. […] Patients were randomly allocated to either XG-102 90 or 900 μg which was administered as a single, sub-conjunctival injection of 250 μl within maximally 3 hours after the end of the eye surgery or to dexamethasone eye drops, which were instilled 4 times per day for 21 days. The first study treatment eye drop was instilled within maximally 15 minutes after the sub-conjunctival injection of study treatment. In order to maintain the blinding, patients randomized to the XG-102 group received eye drops containing a NaCl 0.9% solution and patients randomized to the dexamethasone group were administered a sub-conjunctival injection containing NaCl 0.9%. Patients were followed for, in total, 28 (±5) days after administration of the sub-conjunctival injection of study treatment.
# Patients were randomized to one of the three study groups: • 1. A single sub-conjunctival injection of XG-102 90 μg+placebo eye drops 4 times/day for 21 days or • 2. A single sub-conjunctival injection of XG-102 900 μg+placebo eye drops 4 times/day for 21 days or • 3. A single sub-conjunctival injection of NaCl 0.9%+dexamethasone eye drops 4 times/day for 21 days.
# The primary objective was evaluated by the mean anterior chamber cells grade at day 28 post-administration of the sub-conjunctival administration of study treatment. The criteria for evaluation of the primary objective was
# The ophthalmology examinations were performed at baseline (i.e. either on the day of surgery, but before the surgery was performed). […] In order to reduce operator variability, the sites were instructed that, where possible, the same operator should perform all ophthalmology examinations for the same patient throughout the trial. The ophthalmology measurements were performed in accordance with the study-specific instructions. The latter were reviewed and discussed with the site teams during the initiation visit and during each monitoring visit. For the determination of the cell/flare count and cell/flare grade, the SUN Working Group's consensus was used by the sites using the SUN Working group definitions (“Standardization of Uveitis Nomenclature for Reporting Clinical Data. Results of the First International Workshop.,” American Journal of Ophthalmology, vol 140, no. 3, pp. 509-516, 2005). […]
# [4] = system: light-induced photoreceptor cell death in Sprague-Dawley rats; test: Photoreceptor light damage in albino rat (ERG, ONL thickness); format: in vivo
# Experimental: The aim of this study was to investigate the dose effect of XG-102 on light-induced photoreceptor cell death.
# Test item (XG-102: 30 mg/ml, 3 mg/ml, and 0.3 mg/ml) and vehicle (0.9% NaCl) were administered by intravitreal injection in right eyes the day before induction. The reference (Phenyl-N-test-Butylnitrone (PBN) (50 mg/kg)) and vehicle were intraperitoneally injected 30 min before induction then, 3 times during 12 hours of light exposition, then once after induction. Animals were placed in constant light (7000 lux) for 24 h. Electroretinograms (ERG) were recorded before light treatment and on days 9, 16 and 23 after induction. Eyes were then taken for histology and outer nuclear layer (ONL) thickness assessment. The table below summarizes the allocation of animals in treatment groups:
# For the intravitreal injection animals were anesthetized by intramuscular injection of a mixture of xylazine/ketamine. Test item (5 μl) and vehicle (5 μl) were injected in the right eye. The injection was performed under an operating microscope in the supratemporal area at pars plana using a 33G-needle mounted on a 50 μl Hamilton. The filled syringe was mounted into the UltraMicroPump III to achieve accurate injection in microliter range. Reference and vehicle were injected intraperitoneally at a dose volume of 2.5 ml/kg using a 30G-needle mounted on a 1 ml-syringe.
# Light Exposure: The rats that had been dark-adapted overnight were exposed for 24 hours to a continuous white fluorescent light (7000 lx) in clear plastic cages. Each cage contained one rat. After exposure, the rats returned to rearing cyclic light conditions.
# The body weight of all animals was recorded before the start of the study then at the end of the study. Each day, the general behavior and the aspect of all animals were observed. ERG was recorded before induction and 7, 14 and 21 days after cessation of exposure (Days 9, 16 and 23) on right eyes of dark-adapted and anesthezied animals. The latency times (for a- and b-wave) and the a-wave and b-wave amplitudes were measured for each ERG; the latency times were expressed as millisecond and the a-wave and b-wave as a percentage of the baseline value obtained before light exposure. 15 min before measurement 10 μl Mydriaticum® (0.5% tropicamide) were instilled for pupillary dilatation.
# ERG Parameters: • Color: white maximum. • Maximum intensity: 2.6 cd.s/m^2 (0 dB); Duration 0.24 ms; number of flash: 1. • Filter: 50 Hz. • Impedence Threshold: 90 kΩ.
# Measurement of the ONL Thickness: After ERG testing, animal was euthanized by an overdose of pentobarbital and the right eyes were enucleated, fixed and embedded in paraffin. Sections (5 μm thick) were performed along the vertical meridian and stained with Trichrome-Masson. The vertical meridian included the optic nerve.
# Group mean values and standard deviation were calculated. A statistical Mann and Whitney test was used to evaluate the differences between pair-wise groups. For comparison between time-point into each vehicle groups, a Friedman test was used.
# [5] = molecular target: JNK of primary mouse cortical neuron cultures; test: cell-based or functional assay
# [6] = 20 μg/eye, both eyes treated on the day of induction, 24 h after LPS
# [7] = 20 μg/eye, both eyes treated on the day of induction, vs vehicle
# [8] = Dexamethasone group, blinded assessment
compound,measurement,setting,value
"C[C@H]1C[C@@H]2[C@H]([C@@H](O)C[C@@]3(C)[C@H]2CC[C@]3(O)C(=O)CO)[C@@]2(C)C=CC(=O)C=C12 [methylprednisolone, Methylprednisolone]","clinical score, mean",[1]; 20 μg/eye on Day 0,2.0±0.2
same,"clinical score, median",[1]; 20 μg/eye on Day 0,2
same,reduction of clinical score,[1]; 20 μg/eye on Day 0,50%
same,"EIU clinical score, Mean ± SEM (n = 20)",[1]; [6],2.0 ± 0.2
same,"EIU clinical score, Median",[1]; [6],2.0
same,"Inflammatory cells infiltrated into aqueous humor, Mean ± SEM (n = 20)",[1]; [6],3170 ± 276 cells/μL
same,"Inflammatory cells infiltrated into aqueous humor, Median",[1]; [6],3385 cells/μL
same,Reduction of clinical scores,[1]; [7],50%
same,Reduction of leucocytes,[1]; [7],2%
"C[C@@H]1C[C@H]2[C@@H]3CCC4=CC(=O)C=C[C@]4(C)[C@@]3(F)[C@@H](O)C[C@]2(C)[C@@]1(O)C(=O)CO [Dexamethasone, reference compound]",AEs possibly or probably related to study treatment as assessed by the Investigator,[2]; Dexamethasone (N = 50),15 Total # events
same,Adverse events which led to an interruption of study treatment,[2]; Dexamethasone dose group,3 (5.5%) number of events (% of reported events)
same,Reported AEs by severity: Mild,[2]; Dexamethasone dose group,42 (76.4%) number of events (%)
same,Reported AEs by severity: Moderate,[2]; Dexamethasone dose group,9 (16.4%) number of events (%)
same,Reported AEs by severity: Severe,[2]; Dexamethasone dose group,4 (7.3%) number of events (%)
same,AEs considered by the Investigator to be related to Dexamethasone,[2]; [8],2 (3.6%) # events (%)
same,AEs considered by the Investigator to be related to XG-102,[2]; [8],13 (23.64%) # events (%)
same,AEs possibly or probably related to study medication,[2]; dexamethasone group,15 events
same,"Intraocular pressure increased, patients",[2]; dexamethasone group,14%
same,events in SOC EYE DISORDERS,[2]; dexamethasone group,30 events
same,events resulting in premature withdrawal of study treatment eye drops,[2]; dexamethasone group,3 events
same,patients with SAE,[2]; dexamethasone group,2 patients
same,patients with event in SOC EYE DISORDERS,[2]; dexamethasone group,16 (32%)
same,percentage of patients with an AE within 24 hours after administration,[2]; dexamethasone group,30%
same,total number of AEs reported,[2]; dexamethasone group,55
same,Cleared ocular inflammation (cell grade 0 and flare grade 0): Yes,"[3]; Visit 1 (21 hours), Full analysis population",4 (8.2%) # patients (%)
same,Cleared ocular inflammation (cell grade 0 and flare grade 0): Yes,"[3]; Visit 1 (21 hours), Per-protocol population",4 (8.2%) # patients (%)
same,Cleared ocular inflammation (cell grade 0 and flare grade 0): Yes,"[3]; Visit 2 (7 days), Full analysis population",9 (18.8%) # patients (%)
same,Cleared ocular inflammation (cell grade 0 and flare grade 0): Yes,"[3]; Visit 2 (7 days), Per-protocol population",9 (18.8%) # patients (%)
same,Cleared ocular inflammation (cell grade 0 and flare grade 0): Yes,"[3]; Visit 3 (14 days), Full analysis population",10 (20.4%) # patients (%)
same,Cleared ocular inflammation (cell grade 0 and flare grade 0): Yes,"[3]; Visit 3 (14 days), Per-protocol population",10 (21.3%) # patients (%)
same,Cleared ocular inflammation (cell grade 0 and flare grade 0): Yes,"[3]; Visit 4 (28 days), Full analysis population",17 (35.4%) # patients (%)
same,Cleared ocular inflammation (cell grade 0 and flare grade 0): Yes,"[3]; Visit 4 (28 days), Per-protocol population",15 (34.9%) # patients (%)
same,percentage of patients for whom rescue medication was introduced,"[3]; eye drops 4 times/day, 21 days",4.0%
"CC(C)(C)[N+]([O-])=Cc1ccccc1 [PBN, Phenyl-N-tert-Butylnitrone, reference compound]",recovery of the a-wave (% of baseline),"[4]; 50 mg/kg i.p., Day 9",70.4%
same,recovery of the b-wave (% of baseline),"[4]; 50 mg/kg i.p., Day 9",100%
same,recovery of the a-wave (% of baseline),"[4]; 50 mg/kg i.p., Day 16",79.6%
same,recovery of the b-wave (% of baseline),"[4]; 50 mg/kg i.p., Day 16",103.6%
same,loss of mean ONL thickness versus untreated eyes,"[4]; 50 mg/kg i.p., Day 23",16%
same,recovery of the a-wave (% of baseline),"[4]; 50 mg/kg i.p., Day 23",76.2%
same,recovery of the b-wave (% of baseline),"[4]; 50 mg/kg i.p., Day 23",102.4%
same,"ERG B-wave amplitude, percent of baseline, Mean ± SD","[4]; rat, in vivo, ip, 50 mg/kg",100 ± 18.6%
same,ONL thickness,"[4]; rat, in vivo, ip, 50 mg/kg",34.05 ± 4.00 μm
same,ONL thickness Loss (% comparison with control non-induced eye),"[4]; rat, in vivo, ip, 50 mg/kg",16%
D-TAT-IB1(s) (peptide),JNK activation (immunoblot) in Aβ42-stressed PKR-/- cortical neurons; peptide at 10 µM,[5],-35%
same,"JNK activity (pJNK/JNK ratio, immunoblot) in cortical neurons under H2O2 oxidative stress; peptide at 10 µM",[5],45%
same,c-Jun phosphorylation (immunoblot) in Aβ42-stressed WT cortical neurons; peptide at 10 µM,[5],-74%
